Key:
[1] = target: 5-hydroxytryptamine receptor 4 (Cavia porcellus, UniProt O70528); test: Displacement of [3H]GR113808 from 5HT4 receptor in guinea pig striatal membranes; type: cell membranes, Striatum, Membrane
[2] = target: 5-hydroxytryptamine receptor 4 (Cavia porcellus) (UniProt O70528); test: Displacement of [3H]GR113808 from 5HT4 receptor in guinea pig striatal membranes at 1 uM; type: cell membranes; details: Striatum, Membrane
Sequence of 5-hydroxytryptamine receptor 4 (Cavia porcellus) (O70528 whole entry): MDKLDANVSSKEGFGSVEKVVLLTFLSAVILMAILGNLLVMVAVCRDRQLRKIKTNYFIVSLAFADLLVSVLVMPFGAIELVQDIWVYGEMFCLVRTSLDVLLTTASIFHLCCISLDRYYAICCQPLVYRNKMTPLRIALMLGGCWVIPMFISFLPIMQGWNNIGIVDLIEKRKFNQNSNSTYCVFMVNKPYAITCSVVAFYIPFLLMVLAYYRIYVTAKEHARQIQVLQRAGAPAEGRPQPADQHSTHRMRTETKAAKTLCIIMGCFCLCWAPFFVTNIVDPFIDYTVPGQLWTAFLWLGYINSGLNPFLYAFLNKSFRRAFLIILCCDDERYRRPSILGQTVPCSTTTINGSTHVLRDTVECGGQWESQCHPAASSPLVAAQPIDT

Sequence of 5-hydroxytryptamine receptor 4 (O70528 whole entry): as above

Row | Structure (SMILES) | Ki [1] | inhibition [2]
1 | Cc1csc2nc(OCC3CCN(C/C=C/I)CC3)c3cccn3c12 | 129 nM | 87%
2 | C#CCN1CCC(COc2nc3scc(C)c3n3cccc23)CC1 | 891 nM | 85%

From ChEMBL document CHEMBL1287647, “Synthesis and characterization of a iodine-125-labeled pyrrolo[1,2-a]thieno[3,2-e]pyrazine and evaluation as a potential 5-HT4R SPECT tracer” (Eur J Med Chem, 2010)
